Experimental findings from US20210315893A1 (Galapagos NV, priority 2017, published 2021) are described below.

Experiment [1] deals with T1, human GPCR sphingosine 1-phosphate receptor 2 (Homo sapiens, UniProt O95136).
T1 construct: host or cells: CHO
The experiment can be described thus: S1PR2 antagonist Ca2+ flux assay. It is filed as cell-based. To be noted: antagonist mode, CHO-S1PR2 cells, S1P at EC80, Ca2+ fluorescence; read-out: S1P2 EC50 (nM), S1P2 antagonist EC50. The method in brief:
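CHO cells stably expressing human S1PR2, serum-starved 1 h, Fluo8-loaded; compound-evoked Ca2+ fluorescence read 3 min (agonist mode), then after 15 min S1P at EC80 added and read 3 min (antagonist mode). Max/baseline fluorescence ratios normalised to vehicle and S1P EC100 or EC50 controls; EC50 derived.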
A general note: Calcium assays in cells follow changes in intracellular calcium, usually with a dye or a luminescent sensor.

A further experiment deals with T2, S1PR2 (Homo sapiens, UniProt O95136).
T2 construct: expressed in transfected cells
The experiment can be described thus: S1PR2 binding assay (competition with radioactively labeled S1P, SpA). To be noted: membranes from stable cell line over expressing S1PR2, SpA beads; read-out: S1P2 EC50 (nM), S1PR2 binding EC50. The method in brief: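 Competition with [3H]S1P for membranes from a stable S1PR2-overexpressing cell line, 20 μg/well, captured on PVT-WGA SPA beads, in 20 mM Tris pH 7.5, 10 mM MgCl2, 100 mM NaCl, 0.4% fatty-acid-free BSA, 1 mM Na3VO4. 2 h at room temperature, then centrifugation and scintillation counting.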

In experiment [2] the test system is HFL-1 cells. Description: IL-8 production assay (S1P induced IL-8). Format: cell-based. To be noted: Homo sapiens, HFL1; S1P (1 μM) induced IL-8 in HFL-1 cells, starvation medium without HSA; read-out: IL8 EC50. On the procedure: This assay is designed to test inhibitory activity of compounds on S1P induced IL-8 on HFL-1 cells, ahuman fetal lung fibroblast cell line.
Human Fetal Lung cells (HFL-1) are seeded in 96 well plates in growth medium (F12K+10% heat inactivated FBS+l1% Pen/strep). After overnight incubation at 37° C., […] cells are refreshed with starvation medium without HSA (F12K+1% FBS+1% Pen/strep). On day three, compounds are added (10 point serial dilution, 30 μM highest concentration, 1/3 dilution, 0.3% DMSO final) and plates are incubated for one h at 37° C., 5% CO2. Subsequently S1P at 1 μM final concentration is added and plates are incubated for 16 to24 h at 37° C., […] after which the supermatant was collected. IL-8 levels in the supernatant are determined with the IL-8 ELISA of R&D systems.

Experiment [3] concerns HFL-1 cells. Description: IL8 assay in the presence of Human Serum Albumin. To be noted: HFL1, read-out: HSA IL8 EC50.

pEC50: −log10 of the molar value.

T1 sequence (O95136 whole entry): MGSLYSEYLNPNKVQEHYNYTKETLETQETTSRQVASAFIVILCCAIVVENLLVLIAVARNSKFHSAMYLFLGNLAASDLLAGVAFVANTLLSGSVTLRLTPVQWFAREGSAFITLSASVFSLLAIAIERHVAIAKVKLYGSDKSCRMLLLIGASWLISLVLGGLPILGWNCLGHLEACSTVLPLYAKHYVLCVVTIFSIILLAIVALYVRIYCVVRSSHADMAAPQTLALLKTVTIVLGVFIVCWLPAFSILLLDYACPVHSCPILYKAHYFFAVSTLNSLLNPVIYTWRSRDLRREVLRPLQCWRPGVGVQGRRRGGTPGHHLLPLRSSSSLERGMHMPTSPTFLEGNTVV
T2 sequence (O95136 whole entry): as above

As usually defined, the EC50 is the concentration giving half of the maximal effect. The pEC50 is −log10 of the EC50, conventionally taken in molar units. With `N#Cc1cc2[nH]c(Cc3nn(CC(=O)N4CCOCC4)c(=O)c4ccccc34)nc2cc1OCC1CC1` [Compound 158, 6-(cyclopropylmethoxy)-2-[[3-(2-morpholino-2-oxo-ethyl)-4-oxo-phthalazin-1-yl]methyl]-3H-benzimidazole-5-carbonitrile], the EC50 in experiment [1] was 3.98 nM; on S1PR2, 18.6 nM. The negative-log EC50 (pEC50) is 8.82 in the experiment on HFL-1 cells [2] and 7.96 with HFL-1 cells [3].

For the molecule `C[C@@H]1CN(C(=O)Cn2nc(Cc3nc4cc(Cl)c(OCC5(C#N)CC5)cc4[nH]3)c3ccccc3c2=O)C[C@H](C)O1` [Compound 162, 1-[[6-chloro-2-[[3-[2-[(2S,6R)-2,6-dimethylmorpholin-4-yl]-2-oxo-ethyl]-4-oxo-phthalazin-1-yl]methyl]-3H-benzimidazol-5-yl]oxymethyl]cyclopropanecarbonitrile], the results for the EC50 (in experiment [1]; at S1PR2) were 9.07 nM and 75.1 nM, respectively. Also, the pEC50 in the experiment with HFL-1 cells [2] was 8.35; in the experiment on HFL-1 cells [3], 8.08.

Regarding `CC1(COc2cc3[nH]c(Cc4nn(CC(=O)N5CCOCC5)c(=O)c5ccccc45)nc3cc2Cl)CC1` [Compound 163, 4-[[5-chloro-6-[(1-methylcyclopropyl)methoxy]-1H-benzimidazol-2-yl]methyl]-2-(2-morpholino-2-oxo-ethyl)phthalazin-1-one], the figures for the EC50 (in experiment [1]; at S1PR2) were 11.6 nM and 109 nM, respectively. Further, the pEC50 in the experiment on HFL-1 cells [2] is 7.90; in the experiment on HFL-1 cells [3], 6.97.

`O=C(Cn1nc(Cc2nc3cc(Cl)c(OCC4CC4)cc3[nH]2)c2ccccc2c1=O)N1CCOCC1` [Compound 166, 4-[[5-chloro-6-(cyclopropylmethoxy)-1H-benzimidazol-2-yl]methyl]-2-(2-morpholino-2-oxo-ethyl)phthalazin-1-one]: the results for the EC50 (in experiment [1]; at S1PR2) were 9.34 nM and 22.4 nM, respectively. Further, the figures for the negative logarithm of the EC50 (pEC50) in the experiment on HFL-1 cells [2] and with HFL-1 cells [3] were 8.85 and 8.48, respectively.

Take `CN(CC1CCCO1)C(=O)Cn1nc(Cc2nc3cc(OCC(F)F)c(C#N)cc3[nH]2)c2ccccc2c1=O` (centres unmarked) [Compound 180, 2-[4-[[6-cyano-5-(2,2-difluoroethoxy)-1H-benzimidazol-2-yl)methyl]-1-oxo-phthalazin-2-yl]-N-methyl-N-(THF-2-ylmethyl)acetamide]: the values for the concentration giving a half-maximal response (EC50) (in experiment [1]; on S1PR2) were 21.1 nM and 93.9 nM, respectively. In addition, the pEC50 was 7.55 in the experiment with HFL-1 cells [2] and 7.17 in the experiment on HFL-1 cells [3].

Regarding `N#CCCN(C(=O)Cn1nc(Cc2nc3cc(OCC(F)F)c(C#N)cc3[nH]2)c2ccccc2c1=O)C1CC1` [Compound 181, 2-[4-[[6-cyano-5-(2,2-difluoroethoxy)-1H-benzimidazol-2-yl]methyl]-1-oxo-phthalazin-2-yl]-N-(2-cyanoethyl)-N-cyclopropyl-acetamide], the EC50 in experiment [1] was determined as 95.8 nM; at S1PR2 it was 297 nM. Also, the pEC50 with HFL-1 cells [2] was 6.26; in the experiment with HFL-1 cells [3], 6.04.

In the case of `COC(C)(C)CNC(=O)Cn1nc(Cc2nc3cc(OCC(F)F)c(C#N)cc3[nH]2)c2ccccc2c1=O` [Compound 182, 2-[4-[[6-cyano-5-(2,2-difluoroethoxy)-1H-benzimidazol-2-yl]methyl]-1-oxo-phthalazin-2-yl]-N-(2-methoxy-2-methyl-propyl)acetamide], the EC50 in experiment [1] was determined as 17.3 nM; on S1PR2, 53.4 nM. For the same molecule, the pEC50 in the experiment on HFL-1 cells [2] was 8.02; in the experiment with HFL-1 cells [3], 7.26.

With `COCCN(C)C(=O)Cn1nc(Cc2nc3cc(OCC(F)F)c(C#N)cc3[nH]2)c2ccccc2c1=O` [Compound 183, 2-[4-[[6-cyano-5-(2,2-difluoroethoxy)-1H-benzimidazol-2-yl]methyl]-1-oxo-phthalazin-2-yl]-N-(2-methoxyethyl)-N-methyl-acetamide], the EC50 in experiment [1] turned out to be 76 nM; at S1PR2, 307 nM. Moreover, the pEC50 in the experiment with HFL-1 cells [2] was 6.71; in the experiment on HFL-1 cells [3] it was 6.37.
